Results taken from patent US20060293390A1 (priority 2003, published 2006).
Several values for one entry are separate records, joined by “and”; a condition that tells them apart may be missing. Equal values may be shown once.

Tests used:
[1] = test system: bladder cancer cell line RT112; assay: Apoptosis: cytoplasmic histone-associated DNA fragments, photometric enzyme immunoassay (FIG. 1); format: cell-based, human
Method: FIG. 1: FIG. 1 is a representation of apoptosis measurements with a bladder cancer cell line RT112. […] Besides the control measurements without Diflunisal, there is also a “positive” control (CAM) registered with a defined calibrated system. Apoptosis was measured by determination of cytoplasmic histone-associated DNA fragments (mono- and oligonucleosomes) after induced cell death. The qualitative and quantitative in vitro determination of apoptosis in RT112 tumor cells was analyzed with a photometric enzyme immunoassay. In brief, RT112 cells were harvested, washed twice and resuspended in culture media to yield a density of 2.5×10^5/ml. 100 μl/well of the RT112 cell suspension were seeded into 96 well microtiter plates (obtainable from BECTON DICKINSON) and incubated overnight at 37° C. and 5% CO2. The supernatant was replaced by 90 μl pH-adjusted culture medium alone (control). Again, the cells were incubated for various time periods at 37° C. and 5% CO2. Supernatants of the cell cultures were discarded and RT112 cells were lysed in lysis buffer for 30 minutes at RT (25° C.). The cytoplasmic fractions were transferred into a streptavidin-coated microtiter plate, and the working procedure for the ELISA was performed according to the manufacturer's instructions (the ELISA test was obtained from BOEHRINGER […], Germany). […] But there is also a superimposed part of the third level.

[2] = test system: colon and colorectal cancer; settings: cited from earlier work
RT112 cells = assay: Respiration: mitochondrial activity, XTT assay (FIG. 4); format: cell-based, human
Method: This behavior reflects the apoptosis induction from the second affinity level of albumin. Increasing the concentrations higher than 1.0 mM also the whole respiration activity within the pH range 7.0-7.4 is diminished and falls to 0 at 1.5 mM. The same is true with concentrations up to 2.0 mM. This effect is introduced by apoptosis at pH 7.0-7.4, accelerated by the third and fourth affinity level of albumin. […] The mitochondrial activity of RT112 was determined using a colorimetric assay (XTT assay). […] The mitochondrial succinate-tetrazolium reductase system cleaves the tetrazolium salt XTT to formazan. The amount of this dye is directly correlated to the number of metabolically active cells, as the enzyme system is only active in respirating and viable cells. For this purpose, RT112 cells were harvested, washed twice and resuspended in culture media to yield a density of 2.5×10^5/ml. 100 μl/well of the RT112 cell suspension were seeded into 96 well microtiter plates (BECTON DICKINSON (BD), Heidelberg, Germany) and incubated overnight at 37° C. and 5% CO2. The supernatant was replaced by 90 μl pH-adjusted culture medium (pH 6.0-7.4) and 10 μl of preferred substances or 100 μl/well pH-adjusted culture medium alone (control). The cells were incubated for various time periods at 37° C. and 5% CO2. Thereafter, cells were washed twice and reincubated in fresh pH-adjusted culture medium. After the incubation period, pH of each well was determined with highly sensitive microelectrodes before 50 μl XTT labeling mixture was added. The cells were further incubated for additional 4 h at 37° C. and 5% CO2. The spectrophotometric absorbance of the samples was measured using a microtiter plate (ELISA) reader ([…], Denkendorf, Germany) at a wavelength of […] (630 nm as reference). Data acquisition and analysis was performed using BioLinx 2.1 software ([…]).

[3] = Resorption of orally administered Diflunisal: concentration in blood / interstitial milieu; format: in vivo
leukemia cell line K-562 = assay: Pore formation: PI-stained dead cells by flow cytometry (FIG. 2); format: cell-based, human
Method: FIG. 2: FIG. 2 is a representation of pore formation under conditions of interstitial albumin concentration of 0.2 mM. […] The dead cell fraction compared to the total cell number is measured in a flow cytometer. The experiments were conducted with the leukemia cell line K-562. […] Of minor interest is the second pore formation process starting at pH 6.4, because this process functions beyond the acidity milieu of most tumors. […] Pore formation was measured by determination of the necrotic cells measured by flow cytometry. Cultures of the leukemia cell line K-562 were harvested, and 5×10^5 cells were added into 6 ml tubes (BD). After centrifugation (250×g; 5 min; room temperature (25° C.)) the cells were resuspended in 900 μl pH-adjusted culture medium (pH 6.0-7.4; RPMI 1640 without NaHCO3; available from SIGMA). Then test substances were added to the samples and cells were incubated in a final volume of 1 ml at 37° C. in a water bath. After the incubation period the pH of the samples was measured, and the cells were washed and resuspended in 300 μl FACS medium (PBS+2% FCS and 0.1% NaN3). Cells were stained with propidium iodide (PI; available form SIGMA; 25 μl/25 μg/tube) for 15 minutes at RT (25° C.). Subsequently analysis of the stained cells was performed on an EPICS XL-MCL flow cytometer (available from COULTER, Krefeld, Germany), equipped with a 15 mW argon laser at an excitation wavelength of 488 nm. PI fluorescence was measured in the red channel (FL3; 620 nm longpass filter). Data acquisition and analysis was performed using XL-System II software (available from the company COULTER). It can be seen that Diflunisal causes pH-dependent pore formation in cancer cells.

[4] = test system: bladder cancer cell line RT112; assay: Lactate transport: enzymatic determination of lactate in supernatants (FIG. 3); format: cell-based, human
Method: There is plotted a control measurement which indicates lactate efflux in dependence of pH and without any Diflunisal influence. […] The lactate transport was measured by qualitative enzymatic determination of lactate in supernatants of RT112 cells at 340 nm. RT112 cells were harvested, washed twice and resuspended in culture media to yield a density of 2×10^5/ml. 500 μl/well of the RT112 cell suspension were seeded into 24 well microtiter plates (BD) and incubated overnight at 37° C. and 5% CO2. The supernatant was replaced by 450 μl pH-adjusted culture medium (pH 6.0-7.4) and 50 μl of the solution of preferred substances or 500 μl/well pH-adjusted culture medium alone (control). Again, the cells were incubated for 24 h at 37° C. and 5% CO2. The measurement of lactate in the supernatants at 340 nm (PERKIN-ELMER, Lambda 17. UV-VIS Spectrophotometer, Überlingen, Germany) was performed according to the manufacturer's instructions (SIGMA DIAGNOSTICS, Deisenhofen, Germany; Lactate: Quantitative, Enzymatic Determination of Lactate in Whole Blood at 340 nm (Procedure No. 826-UV)).

[5] = 1.0 mM Diflunisal, 0.06 mM albumin, third affinity level
[6] = 1.0 mM Diflunisal, 0.2 mM albumin
[7] = ratio 6:1 Diflunisal to albumin
[8] = 3 Diflunisal molecules bound to albumin, 0.17 mM albumin

## O=C(O)c1cc(-c2ccc(F)cc2F)ccc1O [Diflunisal, 5-(2,4-difluorophenyl)salicylic acid]
[1]; [5]
  pH at which apoptosis ends: 7.4 pH
  pH at which apoptosis starts: 7.0 pH
[1]; 4 to 6 Diflunisal bound to albumin
  pH range in which apoptosis occurs: 6.0-7.2 pH
[1]; Diflunisal/albumin ratio 7-9, 0.17 mM albumin
  pH range in which apoptosis is achieved: 7.0-7.4 pH
[2]; Life Science 70, 2001, 37-48
  active concentration of Diflunisal: suprapharmacological and intrinsically cytotoxic
[2]; patient treatments, 1000 mg/day
  cancer cell kill: no cancer cell kill takes place
RT112 cells; [6]
  pH at which deviation from normal respiration activity reaches its maximum: ~6.9 pH
  pH at which inhibition of respiration activity starts: ~7.2 pH
RT112 cells; 1.5 mM Diflunisal (same up to 2.0 mM), 0.2 mM albumin
  respiration activity within pH range 7.0-7.4: 0
RT112 cells; 7 to 9 Diflunisal to albumin
  pH range of the new respiration blockade effect: 7.0-7.4 pH
RT112 cells; ratio 4:1 Diflunisal to albumin
  blockade of the respiration chain: significant increase in activity
RT112 cells; [7]
  pH range in which the blockade effect declines to ineffectiveness: 6.9 to 7.2 pH
  pH up to which the respiration blockade reaches an optimum: ≤ 6.9 pH
RT112 cells; three bound Diflunisal molecules per albumin
  blockade of the respiration chain: no substantial blockade
[3]; 100 mg/kg administered orally
  concentration in blood: ≤ 1000 µM
[3]; oral administration
  dose at which the saturation concentration is reached: 50 mg/kg
  saturation concentration in blood: 250 µg/mL
[3]; oral administration, converted from 250 μg/ml
  saturation concentration (resorption saturation): 1.00 mM and 1.0 mM
[3]; patient treatments, 1000 mg/day, Diflunisal to albumin ratio <2:1
  interstitial concentration: < 0.3 mM
Leukemia cell line K-562; 0.2 mM albumin
  starting pH of the second pore formation process: 6.4 pH
Leukemia cell line K-562; 1.25 mM to 1.5 mM Diflunisal, 0.2 mM albumin
  pH of pore formation, third affinity level of albumin: ≤ 7.0 pH
Leukemia cell line K-562; [8]
  pH at which pore formation happens: < 6.5 pH
Leukemia cell line K-562; FIG. 2, 0.2 mM albumin
  interstitial concentration from which pore formation starts in a therapy-relevant pH range: ≥ 1.25 mM
Leukemia cell line K-562; cancer cell suspensions, flow cytometer
  pH at which pore formation can be produced: < 7.0 pH
Leukemia cell line K-562; not shown in FIG. 2
  starting pH of a third transport system (fourth affinity level of albumin): 7.2-7.3 pH
Leukemia cell line K-562; pH<7.0
  interstitial Diflunisal concentration at which pore formation starts: about 0.7 mM
[4]; [8]
  pH range of lactate antiport: 6.6-7.4 pH
[4]; FIG. 3, against control without Diflunisal
  pH range in which lactate efflux is remarkably enhanced: 6.0 to 7.2 pH
[4]; three Diflunisal bound to albumin, first affinity stage
  Diflunisal/lactate antiport: no antiport happens
